According to patent US20040044006A1, “Methods of use of quinolone compounds against pneumococcal and haemophilus bacteria” (priority 1999, published 2004):
In brackets after ≈: the same amount, converted by molar mass. Like-named read-outs stand apart in the source and are kept apart here.

How the values were obtained:
[1] = system: pneumococci with ciprofloxacin MICs ≧8 μg/ml; experiment: Quinolone agar dilution MICs of 28 ciprofloxacin resistant pneumococcal strains, correlated with QRDR mutations; type: cell-based, Streptococcus pneumoniae
Method: Additionally these strains were tested for mutations in parC, gyrA, parE, and gyrB (Pan, et al. Antimicrob. Agents Chemother. 40:2321-2326, 1996) and for efflux mechanism (Brenwald, et ail., Antimicrob. Agents Chemother. 42:2032-2035, 1998).
Gemifloxacin susceptibility powder was obtained from SmithKline Beecham Laboratories, Harlow, UK. Agar dilution methodology was performed on 28 strains as described previously (M. R. Jacobs, Clin. Infect. Dis. 15: 119-127, […] and M. R. Jacobs, Rev. Med. Microbiol. 6:77-93, 1995), using Mueller-Hinton altar (BBL Microbiology Systems, Cockeysville, Md.) supplemented with 5% sheep blood. Standard quality control strains, including Streptococcus pneumoniae ATCC 49619, were included in each run of agar dilution MICs.

[2] = system: quinolone resistant pneumococci; experiment: Determination of efflux mechanism: MICs in the presence and absence of reserpine; type: cell-based, Streptococcus pneumoniae
Method: MICs were determined in the presence and absence of 10 μg/ml of reserpine (Sigma Chemicals, St. Louis, Mo.) as known in the art.
MICs were determined in the presence and absence of […] of reserpine (Sigma Chemicals, St. Louis, Mo., USA) as described previously (Brenwald, et al., Antimicrob. Agents Chemother. 42:2039-2035, 1998 and Davies, et al., Antimicrob. Agents Chemother. 43:1177-1182S, 1999).

pneumococcal strains = experiment: Microbroth dilution MICs of strains tested by time-kill and PAE; type: cell-based; settings: Streptococcus pneumoniae
Outline: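 S. pneumoniae ATCC 49619 served as control in each run. For the 12 time-kill and 6 PAE strains, MICs came from NCCLS microbroth dilution using cation-adjusted Mueller-Hinton broth plus 5% lysed defibrinated horse blood.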

[3] = system: quinolone-resistant Haemophilus influenzae strains; experiment: Microdilution MIC determination in HTM for quinolone-resistant Haemophilus influenzae strains; type: cell-based
Outline: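 Broth microdilution in HTM, inoculum from 24 h chocolate agar colonies by direct suspension to a final 3-8×10^5 CFU/ml. Incubated in ambient air at 35° C. for 20-24 hours; MIC read as the lowest concentration with no growth.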

[4] = 9 quinolone-resistant Haemophilus influenzae strains

## CO/N=C1\CN(c2nc3c(cc2F)c(=O)c(C(=O)O)cn3C2CC2)CC1CN (racemic) [Gemifloxacin, (R,S)-7-(3-aminomethyl-4-methoxyiminopyrrolidin-1-yl)-1-cyclopropyl-6-fluoro-4-oxo-1,4-dihydro-1,8-naphthyridine-3-carboxylic acid]
[1]; Streptococcus pneumoniae
  MIC50: 0.25 µg/mL (≈ 0.642 µM)
  MIC90: 0.5 µg/mL (≈ 1.28 µM)
[1]; Streptococcus pneumoniae, read-out: MICs in strains with three or four QRDR mutations, 20 strains, bound holds in all 20 (ciprofloxacin, levofloxacin, sparfloxacin), 19 (grepafloxacin), 10 (trovafloxacin), 18 (gemifloxacin)
  MIC: < 0.5 µg/mL
[1]; Streptococcus pneumoniae, read-out: MICs in strains with three or four QRDR mutations, 21 strains, bound holds in all 21 (ciprofloxacin, levofloxacin, sparfloxacin), 20 (grepafloxacin), 11 (trovafloxacin), 19 (gemifloxacin)
  MIC: ≤ 0.5 µg/mL
[1]; Streptococcus pneumoniae, strain 2, ParC S79-Y, ParE I460-V, GyrA None, GyrB None
  MIC: 0.06 µg/mL (≈ 0.154 µM)
[1]; Streptococcus pneumoniae, strain 3, ParC D83-N, ParE I460-V, GyrA S81-F, GyrB None
  MIC: 0.06 µg/mL (≈ 0.154 µM)
[1]; Streptococcus pneumoniae, strain 3, ParC D83-N, ParE I460-V, GyrA S83-F, GyrB None
  MIC: 0.06 µg/mL (≈ 0.154 µM)
[1]; Streptococcus pneumoniae, strain 4, ParC S79-F, ParE I460-V, GyrA S81-F, GyrB None
  MIC: 0.06 µg/mL (≈ 0.154 µM)
[1]; Streptococcus pneumoniae, strain 4, ParC S79-F, ParE I460-V, GyrA S83-F, GyrB None
  MIC: 0.06 µg/mL (≈ 0.154 µM)
[1]; Streptococcus pneumoniae, strain 5, ParC R95-C, ParE D435-N, GyrA S81-F, GyrB None
  MIC: 0.125 µg/mL (≈ 0.321 µM)
[1]; Streptococcus pneumoniae, strain 5, ParC R95-C, ParE D435-N, GyrA S83-F, GyrB None
  MIC: 0.125 µg/mL (≈ 0.321 µM)
[1]; Streptococcus pneumoniae, strain 6, ParC S79-Y, ParE I460-V, GyrA E85-K, GyrB None
  MIC: 0.125 µg/mL (≈ 0.321 µM)
[1]; Streptococcus pneumoniae, strain 6, ParC S79-Y, ParE I460-V, GyrA E87-K, GyrB None
  MIC: 0.125 µg/mL (≈ 0.321 µM)
[1]; Streptococcus pneumoniae, strain 7, ParC None, ParE I460-V, GyrA None, GyrB None
  MIC: 0.125 µg/mL (≈ 0.321 µM)
[1]; Streptococcus pneumoniae, strain 8, ParC S79-Y, ParE None, GyrA None, GyrB None
  MIC: 0.125 µg/mL (≈ 0.321 µM)
[1]; Streptococcus pneumoniae, strain 9, ParC S79-Y, ParE None, GyrA None, GyrB None
  MIC: 0.125 µg/mL (≈ 0.321 µM)
[1]; Streptococcus pneumoniae, strain 10, ParC S79-F, ParE I460-V, GyrA S81-C, GyrB None
  MIC: 0.125 µg/mL (≈ 0.321 µM)
[1]; Streptococcus pneumoniae, strain 10, ParC S79-F, ParE I460-V, GyrA S83-C, GyrB None
  MIC: 0.125 µg/mL (≈ 0.321 µM)
[1]; Streptococcus pneumoniae, strain 11, ParC S79-F, ParE I460-V, GyrA S81-F, GyrB None
  MIC: 0.125 µg/mL (≈ 0.321 µM)
[1]; Streptococcus pneumoniae, strain 11, ParC S79-F, ParE I460-V, GyrA S83-F, GyrB None
  MIC: 0.125 µg/mL (≈ 0.321 µM)
[1]; Streptococcus pneumoniae, strain 12, ParC S79-F, ParE I460-V, GyrA None, GyrB D435-N
  MIC: 0.125 µg/mL (≈ 0.321 µM)
[1]; Streptococcus pneumoniae, strain 27, ParC S79-Y, ParE I460-V, GyrA S81-F, GyrB None
  MIC: 1 µg/mL (≈ 2.57 µM)
[1]; Streptococcus pneumoniae, strain 27, ParC S79-Y, ParE I460-V, GyrA S83-F, GyrB None
  MIC: 1 µg/mL (≈ 2.57 µM)
[1]; Streptococcus pneumoniae, strain 28, ParC D83-G N91-D, ParE None, GyrA S81-F S114-G, GyrB None
  MIC: 1 µg/mL (≈ 2.57 µM)
[1]; Streptococcus pneumoniae, strain 28, ParC cell empty, ParE None, GyrA S83-F and S116-G, GyrB None
  MIC: 1 µg/mL (≈ 2.57 µM)
[1]; agar dilution, 28 strains with ciprofloxacin MICs ≧8.0 μg/ml
  MIC Range: 0.03 to 1.0 µg/mL
[2]; 28 quinolone resistant strains, 10 μg/ml reserpine
  lower MICs in the presence of reserpine, fold range over affected strains: 2-4 ×
[2]; of 28 quinolone resistant strains, 10 μg/ml reserpine
  number of strains with lower MICs in the presence of reserpine: 13 strains
[2]; strain 1
  Number of dilutions decrease after incubation with reserpine: 2X^a
[2]; strain 1, 10 μg/ml reserpine
  lower MIC in the presence of reserpine (efflux mechanism): 2X^a
[2]; strain 5
  Number of dilutions decrease after incubation with reserpine: 2X
[2]; strain 5, 10 μg/ml reserpine
  lower MIC in the presence of reserpine (efflux mechanism): 2X
[2]; strain 7
  Number of dilutions decrease after incubation with reserpine: 2X
[2]; strain 7, 10 μg/ml reserpine
  lower MIC in the presence of reserpine (efflux mechanism): 2X
[2]; strain 8
  Number of dilutions decrease after incubation with reserpine: 2X
[2]; strain 8, 10 μg/ml reserpine
  lower MIC in the presence of reserpine (efflux mechanism): 2X
[2]; strain 9
  Number of dilutions decrease after incubation with reserpine: 4X
[2]; strain 9, 10 μg/ml reserpine
  lower MIC in the presence of reserpine (efflux mechanism): 4X
[2]; strain 11
  Number of dilutions decrease after incubation with reserpine: 2X
[2]; strain 11, 10 μg/ml reserpine
  lower MIC in the presence of reserpine (efflux mechanism): 2X
[2]; strain 12
  Number of dilutions decrease after incubation with reserpine: 2X
[2]; strain 12, 10 μg/ml reserpine
  lower MIC in the presence of reserpine (efflux mechanism): 2X
[2]; strain 16
  Number of dilutions decrease after incubation with reserpine: 2X
[2]; strain 16, 10 μg/ml reserpine
  lower MIC in the presence of reserpine (efflux mechanism): 2X
[2]; strain 17
  Number of dilutions decrease after incubation with reserpine: 2X
[2]; strain 17, 10 μg/ml reserpine
  lower MIC in the presence of reserpine (efflux mechanism): 2X
[2]; strain 23
  Number of dilutions decrease after incubation with reserpine: 2X
[2]; strain 23, 10 μg/ml reserpine
  lower MIC in the presence of reserpine (efflux mechanism): 2X
[2]; strain 25
  Number of dilutions decrease after incubation with reserpine: 2x X
[2]; strain 25, 10 μg/ml reserpine
  lower MIC in the presence of reserpine (efflux mechanism): 2x X
[2]; strain 26
  Number of dilutions decrease after incubation with reserpine: 2x X
[2]; strain 26, 10 μg/ml reserpine
  lower MIC in the presence of reserpine (efflux mechanism): 2x X
[2]; strain 28
  Number of dilutions decrease after incubation with reserpine: 4x X
[2]; strain 28, 10 μg/ml reserpine
  lower MIC in the presence of reserpine (efflux mechanism): 4x X
Pneumococcal strains; broth MIC, quinolone resistant PAE strain, read-out: MIC against the quinolone resistant strain tested for PAE
  MIC: 0.25 µg/mL (≈ 0.642 µM)
Pneumococcal strains; strain 1 (S) penicillin susceptible, read-out: Microdilution MIC
  MIC: 0.016 µg/mL (≈ 0.0411 µM)
Pneumococcal strains; strain 2 (S) penicillin susceptible, read-out: Microdilution MIC
  MIC: 0.016 µg/mL (≈ 0.0411 µM)
Pneumococcal strains; strain 3 (S) penicillin susceptible, quinolone-resistant, read-out: Microdilution MIC
  MIC: 0.5 µg/mL (≈ 1.28 µM)
Pneumococcal strains; strain 4 (S) penicillin susceptible, quinolone-resistant, read-out: Microdilution MIC
  MIC: 0.25 µg/mL (≈ 0.642 µM)
Pneumococcal strains; strain 5 (I) penicillin intermediate, read-out: Microdilution MIC
  MIC: 0.03 µg/mL (≈ 0.077 µM)
Pneumococcal strains; strain 6 (I) penicillin intermediate, read-out: Microdilution MIC
  MIC: 0.016 µg/mL (≈ 0.0411 µM)
Pneumococcal strains; strain 7 (I) penicillin intermediate, read-out: Microdilution MIC
  MIC: 0.016 µg/mL (≈ 0.0411 µM)
Pneumococcal strains; strain 8 (I) penicillin intermediate, read-out: Microdilution MIC
  MIC: 0.016 µg/mL (≈ 0.0411 µM)
Pneumococcal strains; strain 9 (R) penicillin resistant, read-out: Microdilution MIC
  MIC: 0.03 µg/mL (≈ 0.077 µM)
Pneumococcal strains; strain 10 (I), read-out: Microdilution MIC
  MIC: 0.016 µg/mL (≈ 0.0411 µM)
Pneumococcal strains; strain 11 (R) penicillin resistant, read-out: Microdilution MIC
  MIC: 0.016 µg/mL (≈ 0.0411 µM)
Pneumococcal strains; strain 12 (R) penicillin resistant, read-out: Microdilution MIC
  MIC: 0.03 µg/mL (≈ 0.077 µM)
[3]; [4]
  MIC50: 0.25 µg/mL (≈ 0.642 µM)
  MIC Range: 0.03 to 1.0 µg/mL
[3]; 9 quinolone-resistant Haemophilus influenzae strains, listed as gemifloxacin
  MIC Range: ≤ 1.0 µg/mL
[3]; 9 quinolone-resistant Haemophilus influenzae strains, read-out: highest MIC
  MIC: 1 µg/mL (≈ 2.57 µM)
[3]; Haemophilus influenzae, read-out: MICs, strain 1, GyrA S84→L, ParC S133→A N138→S, GyrB None, ParE None
  MIC: 0.03 µg/mL (≈ 0.077 µM)
[3]; Haemophilus influenzae, read-out: MICs, strain 2, GyrA S84→F, ParC None, GyrB None, ParE S458→L
  MIC: 0.125 µg/mL (≈ 0.321 µM)
[3]; Haemophilus influenzae, read-out: MICs, strain 3, GyrA S84→L, ParC S84→I, GyrB None, ParE None
  MIC: 0.125 µg/mL (≈ 0.321 µM)
[3]; Haemophilus influenzae, read-out: MICs, strain 4, GyrA S84→F D88→N, ParC D83→N, GyrB None, ParE T459→S
  MIC: 0.25 µg/mL (≈ 0.642 µM)
[3]; Haemophilus influenzae, read-out: MICs, strain 5, GyrA S84→Y, ParC E88→K, GyrB Q468→R, ParE G405→S
  MIC: 0.25 µg/mL (≈ 0.642 µM)
[3]; Haemophilus influenzae, read-out: MICs, strain 6, GyrA S84→L A117→E, ParC S84→R, GyrB None, ParE D420→N
  MIC: 0.5 µg/mL (≈ 1.28 µM)
[3]; Haemophilus influenzae, read-out: MICs, strain 7, GyrA S84→L A117→E, ParC S84→R, GyrB None, ParE D420→N
  MIC: 0.5 µg/mL (≈ 1.28 µM)
[3]; Haemophilus influenzae, read-out: MICs, strain 8, GyrA S84→L A117→E, ParC S84→R, GyrB None, ParE D420→N
  MIC: 0.5 µg/mL (≈ 1.28 µM)
